In article PMC10439028, “SGLT5 is the renal transporter for 1,5-anhydroglucitol, a major player in two rare forms of neutropenia” (Cellular and Molecular Life Sciences: CMLS, 2023):
Values joined by “and” are separate entries in the source; they are usually repeats but may differ in a detail not shown here. Equal entries are not always repeated. Where two headings read alike, the source gives them in different places. Each block holds one molecule with its values, some of them ahead of it.

Tests used:
Type in all cases: cell-based
human SGLT5 = target: T1, human SGLT5 (Homo sapiens, UniProt A0PJK1); test: Inhibition of 10 µM radiolabelled 1,5-AG transport in HEK293T cells overexpressing human SGLT5
T1 construct: expressed in transfected cells
T1 sequence (A0PJK1 1-596): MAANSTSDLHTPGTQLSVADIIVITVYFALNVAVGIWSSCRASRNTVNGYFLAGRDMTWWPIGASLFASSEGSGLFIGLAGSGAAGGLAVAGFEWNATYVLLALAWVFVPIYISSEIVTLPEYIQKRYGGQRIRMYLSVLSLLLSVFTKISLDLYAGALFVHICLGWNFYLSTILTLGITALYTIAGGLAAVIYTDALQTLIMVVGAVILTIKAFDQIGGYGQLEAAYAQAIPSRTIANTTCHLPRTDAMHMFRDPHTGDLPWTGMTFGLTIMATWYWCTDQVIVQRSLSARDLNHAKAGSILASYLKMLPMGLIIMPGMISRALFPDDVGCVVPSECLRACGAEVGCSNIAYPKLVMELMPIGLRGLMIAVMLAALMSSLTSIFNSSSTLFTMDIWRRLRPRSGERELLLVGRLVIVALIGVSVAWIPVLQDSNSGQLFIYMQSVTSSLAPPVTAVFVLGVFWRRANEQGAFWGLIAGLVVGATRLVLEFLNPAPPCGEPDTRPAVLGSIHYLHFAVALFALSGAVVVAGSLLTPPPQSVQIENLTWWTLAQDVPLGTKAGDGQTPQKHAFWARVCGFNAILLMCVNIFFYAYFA
Experimental: (§1) For a typical transporter experiment we proceeded as follows. […] To minimize cell loss during the various washing steps in the radioactive uptake experiments, the wells where the cells were seeded were previously coated with poly- D-lysine, which improved their adhesion to the plastic surface of the wells. For this, each well of the 24-well plates was treated with 200 µl of a 0.01% poly-L-lysine solution for 10 min, washed 3 times with 1 ml of sterilized water and left to dry for 2 h. Only then could the 24-well plates be seeded with the appropriate cell lines and cultured overnight at 37 °C in 5% CO2.
(§2) On day two, the radioactive uptake assay could be performed. The cell culture media was removed by aspiration and cells were incubated for 20 min at 37 °C and 5% CO2 with a basal medium (10 mM HEPES, pH 7.4, 1 mM CaCl2, 1 mM MgCl2, 2 mM KCl) containing 140 mM choline chloride to deplete intracellular […] ions. This was subsequently replaced with the uptake medium (basal medium + 140 mM NaCl, 25 μM cytochalasin B, 1 mg/ml BSA) containing either radioactive U-[^14C]-mannose (15,000 cpm/well) or 2-[^3H]-1,5-AG (30,000 cpm/well) and respectively, non-radioactive mannose or 1,5-AG, at the required concentration in the experiment. Importantly, when measuring the transport of mannose, the uptake media also contained 0.5 mM glucose. This resulted from the need to reduce the background transport of mannose in control HEK293T cells in order to optimize the transport assay for this sugar in our model cell lines. Consequently, after testing various inhibitors (Supplementary Fig. 1), 0.5 mM glucose + 25 µM cytochalasin B appeared as the best combination to decrease efficiently the endogenous transport of mannose in control cells without affecting the transport of mannose in model cell lines overexpressing SGLT4 and SGLT5. Therefore in the radioactive uptake assays for mannose, the uptake medium was: basal uptake medium + 140 mM NaCl, 25 μM cytochalasin B, 0.5 mM glucose and 1 mg/ml BSA to which we added U-[^12C + ^14C]-mannose as described above.
(§3) Once the uptake medium was added to the cells, the plates were incubated at 37 °C in 5% CO2 during the required time. […] In each experiment, the transport activities were calculated after subtracting a “blank” value, corresponding to the radioactivity in the appropriate control cells (HEK293T cells that were stably or transiently transfected with one of the parent plasmids pEF6/MycHisA, pEF6HisB, pUB82 or pUB83 with no inserted cDNA) that were analyzed in parallel.
(§4) The transport experiments to study the specificity of SGLT4 or SGLT5, were performed in the presence of 10 µM U-[^14C + ^12C]-mannose (for SGLT4) or 2-[^3H + ^1H]-1,5-AG (for SGLT5) and increasing concentrations of various sugars tested. The transport experiments to study the inhibition of empagliflozin, dapagliflozin or remogliflozin, on the transport of 1,5-AG by SGLT5 or its variants were performed in the presence of 10 µM 2-[^3H + ^1H]-1,5-AG and increasing concentrations of the various gliflozins tested.

human SGLT4 = target: T2, human SGLT4 (Homo sapiens, UniProt Q2M3M2); test: Inhibition of 10 µM radiolabelled mannose transport in HEK293T cells overexpressing human SGLT4; details: for inhibition at 10000 µM: HEK-293T, read-out: hSGLT4 inhibition with 10 mM inhibitor
T2 construct: expressed in transfected cells
T2 sequence (Q2M3M2 1-681): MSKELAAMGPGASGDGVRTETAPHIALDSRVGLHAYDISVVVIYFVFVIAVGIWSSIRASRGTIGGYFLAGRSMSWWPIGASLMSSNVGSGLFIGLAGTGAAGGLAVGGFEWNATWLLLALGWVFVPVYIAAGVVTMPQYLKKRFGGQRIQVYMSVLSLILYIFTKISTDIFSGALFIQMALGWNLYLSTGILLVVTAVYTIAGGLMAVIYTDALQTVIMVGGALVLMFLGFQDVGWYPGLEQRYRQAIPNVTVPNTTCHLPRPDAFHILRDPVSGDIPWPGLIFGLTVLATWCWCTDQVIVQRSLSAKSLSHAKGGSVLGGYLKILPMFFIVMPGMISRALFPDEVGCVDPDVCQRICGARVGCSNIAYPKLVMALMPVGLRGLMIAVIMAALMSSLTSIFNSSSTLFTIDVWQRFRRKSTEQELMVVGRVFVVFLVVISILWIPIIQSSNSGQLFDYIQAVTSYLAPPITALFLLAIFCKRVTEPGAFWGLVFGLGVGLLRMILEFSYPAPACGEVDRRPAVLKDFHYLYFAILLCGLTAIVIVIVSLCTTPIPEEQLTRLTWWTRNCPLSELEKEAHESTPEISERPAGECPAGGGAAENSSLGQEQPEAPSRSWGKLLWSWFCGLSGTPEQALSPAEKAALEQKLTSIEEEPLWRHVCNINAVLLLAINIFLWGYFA
Experimental: as §1, §2, §3, §4

[1] = target: T3, SGLT5-TM (S70N–E71I–L75H) (Homo sapiens, UniProt A0PJK1, E71I/L75H/S70N); test: Inhibition of 10 µM 1,5-AG transport by triple mutant SGLT5-TM (S70N-E71I-L75H); details: versus wild-type SGLT5, competition experiments, Supplementary Fig. 7
T3 construct: pUB83-hSGLT5-iso2 as well as the various SGLT5 mutants obtained were used to transduce HEK293T cells; expressed in transfected cells; host or cells: HEK293T, lentiviral transduction (pUB83)
T3 sequence (A0PJK1 whole entry S70N/E71I/L75H): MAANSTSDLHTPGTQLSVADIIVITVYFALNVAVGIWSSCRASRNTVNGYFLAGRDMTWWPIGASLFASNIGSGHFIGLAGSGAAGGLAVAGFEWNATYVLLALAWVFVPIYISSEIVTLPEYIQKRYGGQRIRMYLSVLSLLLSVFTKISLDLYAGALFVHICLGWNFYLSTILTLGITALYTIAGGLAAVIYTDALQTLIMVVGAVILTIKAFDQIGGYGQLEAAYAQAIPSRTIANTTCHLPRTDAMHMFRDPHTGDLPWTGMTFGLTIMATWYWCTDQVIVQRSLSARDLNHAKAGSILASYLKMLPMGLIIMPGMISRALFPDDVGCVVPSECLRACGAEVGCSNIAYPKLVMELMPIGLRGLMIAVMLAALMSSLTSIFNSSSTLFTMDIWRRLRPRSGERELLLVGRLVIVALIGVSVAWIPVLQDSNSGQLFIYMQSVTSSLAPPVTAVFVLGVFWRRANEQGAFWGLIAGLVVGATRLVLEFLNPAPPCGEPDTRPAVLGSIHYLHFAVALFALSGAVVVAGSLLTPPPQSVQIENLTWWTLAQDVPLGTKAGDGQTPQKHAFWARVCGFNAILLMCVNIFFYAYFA
Experimental: as §4
SGLT5 mutants were created using the quick-change site directed mutagenesis method that enables effective mutagenesis without subcloning of the amplified PCR products. Complementary primer pairs carrying the desired replacements (Supplementary Table 3) were designed using an online tool (https://www.agilent.com/store/primerDesignProgram.jsp). The PCR protocol was carried out following the manufacturer instructions regarding the KOD HOT Start polymerase kit (TOYOBO™, Novagen). The amplified DNA was cleaned-up from the reactions constituents using the GeneJET PCR purification Kit (Thermo Scientific™) and the size of the DNA fragment were verified by DNA agarose-gel electrophoresis. After eliminating the parental DNA by digesting the purified DNA with the DpnI restriction enzyme, the DNA fragments containing the appropriate changes were transformed in E. coli NEB Turbo competent cells (C2984H). Once colonies were obtained, plasmid DNA was finally amplified, purified and sequenced to verify that the required changes had been introduced and eliminate any PCR errors. Next, pUB83-hSGLT5-iso2 as well as the various SGLT5 mutants obtained were used to transduce HEK293T cells using the exact same protocol as described above to create model cell lines overexpressing the different SGLT5 transporters.
Supplementary Fig. 7: Substrate specificity of SGLT5 - impact of replacing specific and conserved substrate binding residues in human SGLT5 by the equivalent ones in […]
When shown, the IC50 values are derived from inhibition curves showing the transport activity of 1,5-AG by the indicated SGLT5 mutants. Values show the concentration needed of the various sugars to inhibit by 50% the transport activity of 10 µM 2-[1H+3H]-1,5-AG. When the inhibition was too weak to derive IC50 values, the inhibition of the transport of 1,5-AG with the indicated concentration of the inhibitor-sugar is shown. Of note, despite having a lower […]
µM). These apparently contradictory changes are not necessarily surprising: in the case of enzymes, there are multiple examples of mutations that, at the same time, increase the apparent affinity (decrease the Km) of an enzyme for its substrate while decreasing the Vmax.
Measurement of transport activities and the description of the structures of the various inhibitory sugars used are as in Fig. 3C. Data corresponds to n = 3 in at least 2 independent […]
(1 picture or pasted object on this page, not shown here)

[2] = substrate: OC[C@H]1OC[C@H](O)[C@@H](O)[C@@H]1O; test: Radioactive uptake assay (saturation kinetics) in HEK293T cells expressing mouse SGLT5; details: other: 30 min, Supplementary Fig. 4; pH 7.4; 37.0 °C
Experimental: as §1
On day two, the radioactive uptake assay could be performed. […]
Once the uptake medium was added to the cells, the plates were incubated at 37 °C in 5% CO2 during the required time. […] In each experiment, the transport activities were calculated after subtracting a “blank” value, corresponding to the radioactivity in the appropriate control cells (HEK293T cells that were stably or transiently transfected with one of the parent plasmids pEF6/MycHisA, pEF6HisB, pUB82 or pUB83 with no inserted cDNA) that were analyzed in parallel. […]
Supplementary Fig. 4: Transport activities for 1,5-anhydroglucitol and mannose of recombinant mouse SGLT4 and SGLT5 isoforms measured in HEK293T cells. […]

[3] = substrate 10 μM 1,5-AG, unlabelled sugars, Fig. 3C, read-out: hSGLT5 IC50
[4] = 10 mM inhibitor, substrate 10 μM mannose
[5] = 10 µM 2-[1H+3H]-1,5-AG, Fig. 5C, read-out: IC50 for SGLT5-mediated 1,5-AG transport (gliflozins)

IC50 (human SGLT5; [3]): 179 µM | inhibition at 10000 µM (human SGLT4; [4]): 44%
Molecule: O=C1CO[C@H](CO)[C@@H](O)[C@@H]1O [1,5-AF, 1,5-anhydrofructose]

Molecule: OC[C@H]1OC[C@@H](O)[C@@H](O)[C@@H]1O [1,5-AM, 1,5-anhydromannitol]
preference for 1,5-anhydromannitol over 1,5-AG, difference in Ki (human SGLT5; SGLT5): 12 fold | preference of 1,5-anhydromannitol over mannose, difference in Ki (human SGLT5; SGLT5): 25 fold | IC50 (human SGLT5; [3]): 13 µM | less affinity of SGLT4 compared to SGLT5 (human SGLT4; from Fig. 3C): 200 fold | IC50 (human SGLT4; substrate 10 μM mannose, Fig. 3C, read-out: hSGLT4 IC50): 2300 µM | loss of affinity of SGLT5-TM [1]: 250 fold

Molecule: O=C(CO)[C@@H](O)[C@H](O)[C@H](O)CO [Fructose, fructose]
IC50 (human SGLT5): 726 µM | inhibition at 10000 µM (human SGLT4; [4]): 33% | loss of affinity of SGLT5-TM [1]: tenfold

Molecule: OC[C@H]1OC(O)[C@H](O)[C@@H](O)[C@@H]1O (some centres unmarked) [Glucose, glucose]
IC50 (human SGLT5; [3]): 3650 µM | inhibition at 10000 µM (human SGLT4; [4]): 20% | gain of affinity of SGLT5-TM [1]: 30 fold

IC50 (human SGLT5; [5]): 0.4 µM
Molecule: CCOc1ccc(Cc2cc([C@@H]3O[C@H](CO)[C@@H](O)[C@H](O)[C@H]3O)ccc2Cl)cc1 [dapagliflozin]

IC50 (human SGLT5; [5]): 0.26 µM and 0.27 µM
Molecule: Cc1c(Cc2ccc(OC(C)C)cc2)c(O[C@@H]2O[C@H](CO)[C@@H](O)[C@H](O)[C@H]2O)nn1C(C)C [remogliflozin]

Molecule: galactose
hSGLT5 inhibition with 10 mM inhibitor (human SGLT5; 10 mM inhibitor, substrate 10 μM 1,5-AG): 10% | hSGLT4 inhibition with 10 mM inhibitor (human SGLT4; [4]): 39% | gain of affinity of SGLT5-TM [1]: 30 fold

B1: mouse SGLT5 (Mus musculus) (protein)
chain: MAGNSTGDAHVPGSQLSVTDIIVISVYFALNVAVGIWSACRANKNTVSGYFLAGRDMAWWPIGASLFASSEGSGLFVGLAGSGAAGGLAVAGFEWNATYVLLALAWVFVPIYISSEIVTLPEYIQKRFGGQRIRTYLSVLSLMLSVFTKISIDLYAGALFVHICLGWNFYLSTILTLAITALYTIAGGLATVIYTDALQTIIMVVGAVILAVKAFNQIGGYEQLEAAYAQAIPSRTIPNTTCHLPRADAMHMFRDPSTGDLPWTGMTFGLTIMATWYWCTDQVIVQRSLSARNLNHAKAGSILASYLKMLPMGLMIMPGMISRVLFPDDVGCVVPSECLRACGAEIGCSNIAYPKLVMELMPIGLRGLMIAVMMAALLSSLTSIFNSSSTLFTMDIWRQLRPSAGERELLLVGRLVIVVLIGVSVAWIPVLQGSNSGQLFIYMQSVTSSLAPPVTAIFILGIFWRRANEQGAFWGLMAGLVVGALRLVLEFLYPEPPCGQIDTRPAPLRSLHYLHFAIALFLLTCAVMAAGSLLSPPPQQRQIENLTWWTLAPNWSLGTKTGDGQTPQKRAFWARVCNVNAIFLMCVNIFFYAYFA
notes: expressed in transfected cells; host or cells: HEK293T
Km [2]: 500 µM
